According to PubChem BioAssay AID1963853 (Molecular Pharmacology Branch, DTP, NCI, 2024):

Tested on: 266295-075-R-J1-PDC spheroid viability
Test: Anticancer human tumor 266295-075-R-J1-PDC patient-derived head and neck squamous carcinoma cell line growth inhibition [POLQ]
Details: spheroids with HUVEC and MSC; for IC50: curve of first compound; for viability, T/C: stronger effect = lower value
How it was run: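 PDC + HUVEC + MSC complex spheroids; POLQ inhibitors ± partner drugs; top conc. at/near clinical Cmax, else 10 microM (SN-38 1 microM), half-log dilutions; 37 degrees C, 5% CO2.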

[1] = second compound 0.0316 µM, first compound 0.0316 µM
[2] = second compound 0.0316 µM, first compound 0.1 µM
[3] = second compound 0.0316 µM, first compound 0.316 µM
[4] = second compound 0.0316 µM, first compound 1 µM
[5] = second compound 0.0316 µM, first compound 3.16 µM
[6] = second compound 0.0316 µM, first compound 10 µM
[7] = second compound 0.1 µM, first compound 0.0316 µM
[8] = second compound 0.1 µM, first compound 0.1 µM
[9] = second compound 0.1 µM, first compound 0.316 µM
[10] = second compound 0.1 µM, first compound 1 µM
[11] = second compound 0.1 µM, first compound 3.16 µM
[12] = second compound 0.1 µM, first compound 10 µM
[13] = second compound 0.316 µM, first compound 0.0316 µM
[14] = second compound 0.316 µM, first compound 0.1 µM
[15] = second compound 0.316 µM, first compound 0.316 µM
[16] = second compound 0.316 µM, first compound 1 µM
[17] = second compound 0.316 µM, first compound 3.16 µM
[18] = second compound 0.316 µM, first compound 10 µM
[19] = second compound 1 µM, first compound 0.0316 µM
[20] = second compound 1 µM, first compound 0.1 µM
[21] = second compound 1 µM, first compound 0.316 µM
[22] = second compound 1 µM, first compound 1 µM
[23] = second compound 1 µM, first compound 3.16 µM
[24] = second compound 1 µM, first compound 10 µM
[25] = second compound 3.16 µM, first compound 0.0316 µM
[26] = second compound 3.16 µM, first compound 0.1 µM
[27] = second compound 3.16 µM, first compound 0.316 µM
[28] = second compound 3.16 µM, first compound 1 µM
[29] = second compound 3.16 µM, first compound 3.16 µM
[30] = second compound 3.16 µM, first compound 10 µM
[31] = second compound 10 µM, first compound 0.0316 µM
[32] = second compound 10 µM, first compound 0.1 µM
[33] = second compound 10 µM, first compound 0.316 µM
[34] = second compound 10 µM, first compound 1 µM
[35] = second compound 10 µM, first compound 3.16 µM
[36] = second compound 10 µM, first compound 10 µM
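Also: spheroids exposed to compounds for seven days before readout.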

SMILES: CCCS(=O)(=O)Nc1ccc(F)c(C(=O)c2c[nH]c3ncc(-c4ccc(Cl)cc4)cc23)c1F + COC1C(OC(N)=O)C(O)C(Oc2ccc3c(O)c(NC(=O)c4ccc(O)c(CC=C(C)C)c4)c(=O)oc3c2C)OC1(C)C
- IC50 (second compound 0.0316 µM): > 10 µM
- IC50 (second compound 0.1 µM): > 10 µM
- IC50 (second compound 0.316 µM): > 10 µM
- IC50 (second compound 1 µM): > 10 µM
- IC50 (second compound 3.16 µM): > 10 µM
- IC50 (second compound 10 µM): > 10 µM
- viability, T/C [1]: 99%
- viability, T/C [2]: 116%
- viability, T/C [3]: 107%
- viability, T/C [4]: 115%
- viability, T/C [5]: 169%
- viability, T/C [6]: 172%
- viability, T/C [7]: 101%
- viability, T/C [8]: 121%
- viability, T/C [9]: 105%
- viability, T/C [10]: 112%
- viability, T/C [11]: 157%
- viability, T/C [12]: 222%
- viability, T/C [13]: 116%
- viability, T/C [14]: 102%
- viability, T/C [15]: 102%
- viability, T/C [16]: 128%
- viability, T/C [17]: 155%
- viability, T/C [18]: 195%
- viability, T/C [19]: 117%
- viability, T/C [20]: 102%
- viability, T/C [21]: 102%
- viability, T/C [22]: 113%
- viability, T/C [23]: 143%
- viability, T/C [24]: 172%
- viability, T/C [25]: 98.7%
- viability, T/C [26]: 87.5%
- viability, T/C [27]: 140%
- viability, T/C [28]: 130%
- viability, T/C [29]: 139%
- viability, T/C [30]: 178%
- viability, T/C [31]: 112%
- viability, T/C [32]: 95.5%
- viability, T/C [33]: 111%
- viability, T/C [34]: 153%
- viability, T/C [35]: 144%
- viability, T/C [36]: 166%

SMILES: CNCc1ccc(-c2[nH]c3cc(F)cc4c3c2CCNC4=O)cc1 + COC1C(OC(N)=O)C(O)C(Oc2ccc3c(O)c(NC(=O)c4ccc(O)c(CC=C(C)C)c4)c(=O)oc3c2C)OC1(C)C
- IC50 (second compound 0.0316 µM): > 10 µM
- IC50 (second compound 0.1 µM): > 10 µM
- IC50 (second compound 0.316 µM): > 10 µM
- IC50 (second compound 1 µM): > 10 µM
- IC50 (second compound 3.16 µM): > 10 µM
- IC50 (second compound 10 µM): > 10 µM
- viability, T/C [1]: 95.1%
- viability, T/C [2]: 79.6%
- viability, T/C [3]: 86.8%
- viability, T/C [4]: 78.3%
- viability, T/C [5]: 83.8%
- viability, T/C [6]: 98.2%
- viability, T/C [7]: 90.2%
- viability, T/C [8]: 85.1%
- viability, T/C [9]: 97.2%
- viability, T/C [10]: 86.9%
- viability, T/C [11]: 91.3%
- viability, T/C [12]: 99%
- viability, T/C [13]: 111%
- viability, T/C [14]: 83.3%
- viability, T/C [15]: 93.1%
- viability, T/C [16]: 91.5%
- viability, T/C [17]: 108%
- viability, T/C [18]: 114%
- viability, T/C [19]: 92.8%
- viability, T/C [20]: 92.4%
- viability, T/C [21]: 90.5%
- viability, T/C [22]: 83.7%
- viability, T/C [23]: 107%
- viability, T/C [24]: 105%
- viability, T/C [25]: 97.7%
- viability, T/C [26]: 85.5%
- viability, T/C [27]: 92.1%
- viability, T/C [28]: 81%
- viability, T/C [29]: 108%
- viability, T/C [30]: 115%
- viability, T/C [31]: 94.2%
- viability, T/C [32]: 82.5%
- viability, T/C [33]: 96.7%
- viability, T/C [34]: 101%
- viability, T/C [35]: 113%
- viability, T/C [36]: 105%

SMILES: COc1cccc(OCCCN)c1-c1cc(Nc2cnc(C#N)cn2)n[nH]1 + COC1C(OC(N)=O)C(O)C(Oc2ccc3c(O)c(NC(=O)c4ccc(O)c(CC=C(C)C)c4)c(=O)oc3c2C)OC1(C)C
- IC50 (second compound 0.0316 µM): > 1 µM
- IC50 (second compound 0.1 µM): > 1 µM
- IC50 (second compound 0.316 µM): > 1 µM
- IC50 (second compound 1 µM): > 1 µM
- IC50 (second compound 3.16 µM): > 1 µM
- IC50 (second compound 10 µM): > 1 µM
- viability, T/C (second compound 0.0316 µM, first compound 0.00316 µM): 87.7%
- viability, T/C (second compound 0.0316 µM, first compound 0.01 µM): 81.7%
- viability, T/C [1]: 71.1%
- viability, T/C [2]: 64.2%
- viability, T/C [3]: 67.1%
- viability, T/C [4]: 71.7%
- viability, T/C (second compound 0.1 µM, first compound 0.00316 µM): 109%
- viability, T/C (second compound 0.1 µM, first compound 0.01 µM): 89.8%
- viability, T/C [7]: 84%
- viability, T/C [8]: 68.7%
- viability, T/C [9]: 65.6%
- viability, T/C [10]: 75.6%
- viability, T/C (second compound 0.316 µM, first compound 0.00316 µM): 88.8%
- viability, T/C (second compound 0.316 µM, first compound 0.01 µM): 85.4%
- viability, T/C [13]: 78.6%
- viability, T/C [14]: 70.6%
- viability, T/C [15]: 81.1%
- viability, T/C [16]: 70%
- viability, T/C (second compound 1 µM, first compound 0.00316 µM): 96.7%
- viability, T/C (second compound 1 µM, first compound 0.01 µM): 89.8%
- viability, T/C [19]: 76.4%
- viability, T/C [20]: 66.1%
- viability, T/C [21]: 72%
- viability, T/C [22]: 69.1%
- viability, T/C (second compound 3.16 µM, first compound 0.00316 µM): 92.3%
- viability, T/C (second compound 3.16 µM, first compound 0.01 µM): 96.7%
- viability, T/C [25]: 78.6%
- viability, T/C [26]: 74.3%
- viability, T/C [27]: 78.3%
- viability, T/C [28]: 76.1%
- viability, T/C (second compound 10 µM, first compound 0.00316 µM): 87.6%
- viability, T/C (second compound 10 µM, first compound 0.01 µM): 90.9%
- viability, T/C [31]: 70.4%
- viability, T/C [32]: 65.1%
- viability, T/C [33]: 66.5%
- viability, T/C [34]: 69.6%

SMILES: O=C(c1cc(Cc2n[nH]c(=O)c3ccccc23)ccc1F)N1CCN(C(=O)C2CC2)CC1 + COC1C(OC(N)=O)C(O)C(Oc2ccc3c(O)c(NC(=O)c4ccc(O)c(CC=C(C)C)c4)c(=O)oc3c2C)OC1(C)C
- IC50 (second compound 0.0316 µM): > 10 µM
- IC50 (second compound 0.1 µM): > 10 µM
- IC50 (second compound 0.316 µM): > 10 µM
- IC50 (second compound 1 µM): > 10 µM
- IC50 (second compound 3.16 µM): > 10 µM
- IC50 (second compound 10 µM): > 10 µM
- viability, T/C [1]: 84.6%
- viability, T/C [2]: 107%
- viability, T/C [3]: 84.8%
- viability, T/C [4]: 110%
- viability, T/C [5]: 87.7%
- viability, T/C [6]: 97.9%
- viability, T/C [7]: 89.2%
- viability, T/C [8]: 114%
- viability, T/C [9]: 89.9%
- viability, T/C [10]: 93.7%
- viability, T/C [11]: 98.6%
- viability, T/C [12]: 84.6%
- viability, T/C [13]: 101%
- viability, T/C [14]: 99.8%
- viability, T/C [15]: 88.9%
- viability, T/C [16]: 99.8%
- viability, T/C [17]: 93.6%
- viability, T/C [18]: 80%
- viability, T/C [19]: 98.1%
- viability, T/C [20]: 89.8%
- viability, T/C [21]: 88.1%
- viability, T/C [22]: 82.3%
- viability, T/C [23]: 83.5%
- viability, T/C [24]: 90.9%
- viability, T/C [25]: 96.6%
- viability, T/C [26]: 103%
- viability, T/C [27]: 104%
- viability, T/C [28]: 83.8%
- viability, T/C [29]: 100%
- viability, T/C [30]: 102%
- viability, T/C [31]: 106%
- viability, T/C [32]: 89.7%
- viability, T/C [33]: 90.8%
- viability, T/C [34]: 89.4%
- viability, T/C [35]: 112%
- viability, T/C [36]: 81.4%
